Measurements reported in the NIST ThermoML archive (doi:10.1016/j.jct.2017.03.006).

Test: xn = mol fraction of the nth substance listed
Settings: Liquid; for viscosity: Concentric cylinders viscometry; for mass density: Vibrating tube method

Cc1ccc(C)c(C)c1 [1,2,4-trimethylbenzene] + CCCCO
Settings	mass density [kg/m3]	viscosity [mPa·s]
323.15 K, 100 kPa, x2 = 0.7975	–	1.027
323.15 K, 100 kPa, x2 = 0.9131	–	1.22
333.15 K, 100 kPa, x2 = 0	843.6	0.562
333.15 K, 100 kPa, x2 = 0.1002	–	0.552
333.15 K, 100 kPa, x2 = 0.1005	836.9	–
333.15 K, 100 kPa, x2 = 0.2261	830.2	–
333.15 K, 100 kPa, x2 = 0.2327	–	0.564
333.15 K, 100 kPa, x2 = 0.2999	826.1	–
333.15 K, 100 kPa, x2 = 0.3	–	0.582
333.15 K, 100 kPa, x2 = 0.3966	820.6	–
333.15 K, 100 kPa, x2 = 0.3969	–	0.6
333.15 K, 100 kPa, x2 = 0.5289	812.8	–
333.15 K, 100 kPa, x2 = 0.53	–	0.652
333.15 K, 100 kPa, x2 = 0.6367	805.8	–
333.15 K, 100 kPa, x2 = 0.637	–	0.711
333.15 K, 100 kPa, x2 = 0.7249	799.8	–
333.15 K, 100 kPa, x2 = 0.7975	–	0.853
333.15 K, 100 kPa, x2 = 0.7977	794.5	–
333.15 K, 100 kPa, x2 = 0.9131	785.6	0.996
333.15 K, 1000 kPa, x2 = 0	844.4	–
333.15 K, 1000 kPa, x2 = 0.1005	837.7	–
333.15 K, 1000 kPa, x2 = 0.2261	831	–
333.15 K, 1000 kPa, x2 = 0.2999	826.9	–
333.15 K, 1000 kPa, x2 = 0.3966	821.4	–
333.15 K, 1000 kPa, x2 = 0.5289	813.6	–
333.15 K, 1000 kPa, x2 = 0.6367	806.6	–
333.15 K, 1000 kPa, x2 = 0.7249	800.7	–
333.15 K, 1000 kPa, x2 = 0.7977	795.3	–
333.15 K, 1000 kPa, x2 = 0.9131	786.4	–
333.15 K, 5000 kPa, x2 = 0	847.6	–
333.15 K, 5000 kPa, x2 = 0.1005	841	–
333.15 K, 5000 kPa, x2 = 0.2261	834.4	–
333.15 K, 5000 kPa, x2 = 0.2999	830.3	–
333.15 K, 5000 kPa, x2 = 0.3966	824.8	–
333.15 K, 5000 kPa, x2 = 0.5289	817.1	–
333.15 K, 5000 kPa, x2 = 0.6367	810.1	–
333.15 K, 5000 kPa, x2 = 0.7249	804.2	–
333.15 K, 5000 kPa, x2 = 0.7977	798.8	–
333.15 K, 5000 kPa, x2 = 0.9131	789.9	–
333.15 K, 10000 kPa, x2 = 0	851.4	–
333.15 K, 10000 kPa, x2 = 0.1005	844.9	–
333.15 K, 10000 kPa, x2 = 0.2261	838.3	–
333.15 K, 10000 kPa, x2 = 0.2999	834.2	–
333.15 K, 10000 kPa, x2 = 0.3966	828.8	–
333.15 K, 10000 kPa, x2 = 0.5289	821.1	–
333.15 K, 10000 kPa, x2 = 0.6367	814.2	–
333.15 K, 10000 kPa, x2 = 0.7249	808.3	–
333.15 K, 10000 kPa, x2 = 0.7977	803	–
333.15 K, 10000 kPa, x2 = 0.9131	794.1	–
333.15 K, 20000 kPa, x2 = 0	858.6	–
333.15 K, 20000 kPa, x2 = 0.1005	852.4	–
333.15 K, 20000 kPa, x2 = 0.2261	845.8	–
333.15 K, 20000 kPa, x2 = 0.2999	841.8	–
333.15 K, 20000 kPa, x2 = 0.3966	836.4	–
333.15 K, 20000 kPa, x2 = 0.5289	828.7	–
333.15 K, 20000 kPa, x2 = 0.6367	821.9	–
333.15 K, 20000 kPa, x2 = 0.7249	816	–
333.15 K, 20000 kPa, x2 = 0.7977	810.7	–
333.15 K, 20000 kPa, x2 = 0.9131	801.9	–
333.15 K, 30000 kPa, x2 = 0	865.3	–
333.15 K, 30000 kPa, x2 = 0.1005	859.2	–
333.15 K, 30000 kPa, x2 = 0.2261	852.8	–
333.15 K, 30000 kPa, x2 = 0.2999	848.7	–
333.15 K, 30000 kPa, x2 = 0.3966	843.4	–
333.15 K, 30000 kPa, x2 = 0.5289	835.7	–
333.15 K, 30000 kPa, x2 = 0.6367	828.9	–
333.15 K, 30000 kPa, x2 = 0.7249	823.1	–
333.15 K, 30000 kPa, x2 = 0.7977	817.8	–
333.15 K, 30000 kPa, x2 = 0.9131	809.1	–
333.15 K, 40000 kPa, x2 = 0	871.6	–
333.15 K, 40000 kPa, x2 = 0.1005	865.5	–
333.15 K, 40000 kPa, x2 = 0.2261	859.2	–
333.15 K, 40000 kPa, x2 = 0.2999	855.2	–
333.15 K, 40000 kPa, x2 = 0.3966	849.8	–
333.15 K, 40000 kPa, x2 = 0.5289	842.2	–
333.15 K, 40000 kPa, x2 = 0.6367	835.5	–
333.15 K, 40000 kPa, x2 = 0.7249	829.6	–
333.15 K, 40000 kPa, x2 = 0.7977	824.4	–
333.15 K, 40000 kPa, x2 = 0.9131	815.6	–
333.15 K, 50000 kPa, x2 = 0	877.4	–
333.15 K, 50000 kPa, x2 = 0.1005	871.4	–
333.15 K, 50000 kPa, x2 = 0.2261	865.1	–
333.15 K, 50000 kPa, x2 = 0.2999	861.1	–
333.15 K, 50000 kPa, x2 = 0.3966	855.9	–
333.15 K, 50000 kPa, x2 = 0.5289	848.3	–
333.15 K, 50000 kPa, x2 = 0.6367	841.6	–
333.15 K, 50000 kPa, x2 = 0.7249	835.7	–
333.15 K, 50000 kPa, x2 = 0.7977	830.5	–
333.15 K, 50000 kPa, x2 = 0.9131	821.7	–
333.15 K, 60000 kPa, x2 = 0	883	–
333.15 K, 60000 kPa, x2 = 0.1005	877.1	–
333.15 K, 60000 kPa, x2 = 0.2261	870.8	–
333.15 K, 60000 kPa, x2 = 0.2999	866.8	–
333.15 K, 60000 kPa, x2 = 0.3966	861.6	–
333.15 K, 60000 kPa, x2 = 0.5289	854	–
333.15 K, 60000 kPa, x2 = 0.6367	847.3	–
333.15 K, 60000 kPa, x2 = 0.7249	841.4	–
333.15 K, 60000 kPa, x2 = 0.7977	836.3	–
333.15 K, 60000 kPa, x2 = 0.9131	827.5	–
333.15 K, 70000 kPa, x2 = 0	888.2	–
333.15 K, 70000 kPa, x2 = 0.1005	882.3	–
333.15 K, 70000 kPa, x2 = 0.2261	876.2	–
333.15 K, 70000 kPa, x2 = 0.2999	872.2	–
333.15 K, 70000 kPa, x2 = 0.3966	866.9	–
333.15 K, 70000 kPa, x2 = 0.5289	859.5	–
333.15 K, 70000 kPa, x2 = 0.6367	852.7	–
333.15 K, 70000 kPa, x2 = 0.7249	846.9	–
333.15 K, 70000 kPa, x2 = 0.7977	841.7	–
333.15 K, 70000 kPa, x2 = 0.9131	832.9	–
333.15 K, 80000 kPa, x2 = 0	893.2	–
333.15 K, 80000 kPa, x2 = 0.1005	887.4	–
333.15 K, 80000 kPa, x2 = 0.2261	881.2	–
333.15 K, 80000 kPa, x2 = 0.2999	877.2	–
333.15 K, 80000 kPa, x2 = 0.3966	872	–
333.15 K, 80000 kPa, x2 = 0.5289	864.6	–
333.15 K, 80000 kPa, x2 = 0.6367	857.8	–
333.15 K, 80000 kPa, x2 = 0.7249	852	–
333.15 K, 80000 kPa, x2 = 0.7977	846.8	–
333.15 K, 80000 kPa, x2 = 0.9131	838	–
333.15 K, 90000 kPa, x2 = 0	898	–
333.15 K, 90000 kPa, x2 = 0.1005	892.2	–
333.15 K, 90000 kPa, x2 = 0.2261	886	–
333.15 K, 90000 kPa, x2 = 0.2999	882.1	–
333.15 K, 90000 kPa, x2 = 0.3966	876.9	–
333.15 K, 90000 kPa, x2 = 0.5289	869.4	–
333.15 K, 90000 kPa, x2 = 0.6367	862.7	–
333.15 K, 90000 kPa, x2 = 0.7249	856.9	–
333.15 K, 90000 kPa, x2 = 0.7977	851.7	–
333.15 K, 90000 kPa, x2 = 0.9131	842.9	–
333.15 K, 100000 kPa, x2 = 0	902.5	–
333.15 K, 100000 kPa, x2 = 0.1005	896.8	–
333.15 K, 100000 kPa, x2 = 0.2261	890.7	–
333.15 K, 100000 kPa, x2 = 0.2999	886.7	–
333.15 K, 100000 kPa, x2 = 0.3966	881.5	–
333.15 K, 100000 kPa, x2 = 0.5289	874.1	–
333.15 K, 100000 kPa, x2 = 0.6367	867.4	–
333.15 K, 100000 kPa, x2 = 0.7249	861.6	–
333.15 K, 100000 kPa, x2 = 0.7977	856.4	–
333.15 K, 100000 kPa, x2 = 0.9131	847.6	–
333.15 K, 120000 kPa, x2 = 0	911.1	–
333.15 K, 120000 kPa, x2 = 0.1005	905.4	–
333.15 K, 120000 kPa, x2 = 0.2261	899.4	–
333.15 K, 120000 kPa, x2 = 0.2999	895.4	–
333.15 K, 120000 kPa, x2 = 0.3966	890.3	–
333.15 K, 120000 kPa, x2 = 0.5289	882.8	–
333.15 K, 120000 kPa, x2 = 0.6367	876.1	–
333.15 K, 120000 kPa, x2 = 0.7249	870.3	–
333.15 K, 120000 kPa, x2 = 0.7977	865.2	–
333.15 K, 120000 kPa, x2 = 0.9131	856.4	–
333.15 K, 140000 kPa, x2 = 0	919	–
333.15 K, 140000 kPa, x2 = 0.1005	913.3	–
333.15 K, 140000 kPa, x2 = 0.2261	907.6	–
333.15 K, 140000 kPa, x2 = 0.2999	903.3	–
333.15 K, 140000 kPa, x2 = 0.3966	898.3	–
333.15 K, 140000 kPa, x2 = 0.5289	891	–
333.15 K, 140000 kPa, x2 = 0.6367	884.3	–
333.15 K, 140000 kPa, x2 = 0.7249	878.6	–
333.15 K, 140000 kPa, x2 = 0.7977	873.5	–
333.15 K, 140000 kPa, x2 = 0.9131	864.5	–
